Patent US20200121704A1, “METHODS FOR TREATING HYPERTENSION AND ARTERIAL STIFFNESS” (THE REGENTS OF THE UNIVERSITY OF COLORADO, A BODY CORPORATE, priority 2017, published 2020)

How the values were obtained:
Type in all cases: in vivo, human
[1] = test system: healthy middle-aged and older adults; test: Resting brachial artery blood pressure
Experimental: Resting brachial artery blood pressure and heart rate were measured in the seated position after 5 minutes of rest in a quiet examination room using a semi-automated blood pressure device (DYNAMAP™ XL, Johnson & Johnson, Arlington, Tex., USA). Measurements were made multiple times from the non-dominant arm, with 2 minutes of quiet rest between recordings. Repeat measurements were made until 3 blood pressure values were obtained that were within 5 mmHg of one another. These values were then averaged to determine resting systolic and diastolic blood pressure, pulse pressure, mean arterial pressure, and resting heart rate. Baseline blood pressure values were obtained using the above-described protocol on two separate testing days prior to the initiation of the first intervention arm and were averaged to determine baseline blood pressure status (i.e., normotensive vs. pre-hypertensive) for subsequent analyses.
To determine if this effect was greater in subjects with elevated baseline blood pressure, subjects were characterized as either normotensive (SBP <120 mmHg; DBP <80 mmHg) or pre-hypertensive (SBP 120-139 mmHg; DBP 80-89 mmHg) based on their average baseline blood pressure obtained on two separate days. The inventors observed a near significant interaction between treatment condition (NR vs. placebo) and blood pressure status for systolic blood pressure (FIG. 3A; P=0.07), with no effect on diastolic pressure (FIG. 3C), and […] on mean arterial pressure (FIG. 3E; P=0.08). […] Diastolic blood pressure also tended to be reduced in prehypertensive individuals; however this effect was lower in magnitude (3 mmHg reduction) and approached significance (FIG. 3D; P=0.09).

Total lipid panel = test: Total lipid panel
Experimental: (§1) Sixty subjects were consented for this study. This study was conducted in the Integrative Physiology of Aging Laboratory and the Clinical and Translational Research Center (CTRC) at the University of Colorado Boulder. All blood assays were performed at either Boulder Community Hospital or the University of Colorado Denver Anschutz Medical Campus CTRC Core Laboratory. All testing sessions were performed after an overnight fast and 24-hour abstention from exercise and alcohol consumption. All subjects refrained from all prescription medications for 24 hours and over the counter medications for 48 hours prior to all testing visits.
(§2) Clinical laboratory values were obtained from blood samples collected at the end of each intervention phase in 21 subjects. Complete blood work was not obtained in three subjects due to a failed catheterization during at least one of the testing phases.

[2] = Complete blood count (clinical laboratory values at end of each intervention phase)
Experimental: as §1, §2

PBMCs = test: NAD+ and related metabolites in PBMCs
Description: Oral NR supplementation effectively elevated levels of NAD^+ in PBMCs by about 60% compared with placebo (mean change=6.2 pMol/mg protein) (Table 6). […] Of note, NR also elevated levels of nicotinic acid adenine dinucleotide (NAAD) nearly 5-fold above the placebo condition. […] Though not significant, we also observed an ˜1.5-fold increase in nicotinamide mononucleotide (NMN; mean change=0.72 pMol/mg protein), which may indicate the possible conversion of NR to NMN by nicotinamide riboside kinase (NRK) enzymes or further metabolism of NaM into NMN by nicotinamide phosphoribosyltransferase (NAMPT). […] Collectively, these findings indicate that chronic NR supplementation effectively stimulates NAD^+ metabolism in healthy middle-aged and older men and women.

[3] = all subjects, NR condition compared with placebo, P<0.05
[4] = pre-hypertensive individuals, P<0.01
[5] = end of 6-week phase, mean ± SEM, 21 subjects
[6] = NR condition, end of 6-week phase, mean ± SEM, 21 subjects
[7] = NR condition, end of 6-week phase, mean ± SEM, 21 subjects, *P < 0.05 vs. placebo
[8] = PBMCs, NR condition, mean ± SD, N = 21
[9] = PBMCs, NR condition, mean ± SD, N = 21, *p < 0.05
[10] = PBMCs, did not reach statistical significance

With `NC(=O)c1ccc[n+]([C@@H]2O[C@H](CO)[C@@H](O)[C@H]2O)c1` [NR, nicotinamide riboside] as the molecule, how does the “Mean arterial blood pressure” value ([1]; all subjects) read?
Its value is “moderately lowered”.

And the “Resting diastolic blood pressure” value [1, 3]?
The value was “significantly reduced”.

And the “Resting systolic blood pressure” value [1, 3]?
Its value is “significantly reduced”.

What about the “Pre-hypertension, hypertension, and arterial stiffness” value ([1]; human subjects, 500 mg twice daily, within 6 weeks or less) of the same molecule?
The value was “significant improvements”.

What about the Blood pressure ([1]; normotensive individuals) of the same molecule?
Its Blood pressure is “no effect”.

And the “Lowering of systolic blood pressure compared with placebo” value [1, 4]?
The value was 8 mmHg.

And the “Mean (arterial) pressure” value [1, 4]?
The value was “significant reduction”.

And the “Reduction of diastolic blood pressure” value ([1]; prehypertensive individuals, P=0.09)?
The value was 3 mmHg.

And the “Difference between treatment conditions for blood lipid profiles” value (Total lipid panel; NR vs placebo)?
The value was “No meaningful differences”.

What about the HDL-C (Total lipid panel; [5]) of the same molecule?
Its HDL-C is 60 ± 5 mg/dL.

What about the LDL-C (Total lipid panel; [5]) of the same molecule?
The LDL-C was 94 ± 5 mg/dL.

What about the N-HDL-C (Total lipid panel; [5]) of the same molecule?
The N-HDL-C was 111 ± 6 mg/dL.

What about the Total cholesterol (Total lipid panel; [5]) of the same molecule?
Its Total cholesterol is 171 ± 6 mg/dL.

And the Triglycerides (Total lipid panel; [5])?
Its Triglycerides is 90 ± 14 mg/dL.

What about the VLDL-C (Total lipid panel; [5]) of the same molecule?
Its VLDL-C is 17 ± 3 mg/dL.

What about the HCT [2, 6] of the same molecule?
Its HCT is 41.1 ± 0.7%.

What about the HGB [2, 6] of the same molecule?
The HGB was 13.9 ± 0.2 g/dL.

What about the MCH [2, 6] of the same molecule?
The MCH was 31.2 ± 0.3 pg.

And the MCHC [2, 6]?
The MCHC was 33.8 ± 0.2 g/dL.

And the MCV [2, 6]?
The MCV was 92.3 ± 0.9 fL.

And the RBC [2, 6]?
The RBC was 4.5 ± 0.1 10^6/μL.

And the RDW [2, 6]?
Its RDW is 13.0 ± 0.2%.

And the WBC [2, 6]?
Its WBC is 4.3 ± 0.3 10^3/μL.

And the basophils absolute [2, 6]?
The basophils absolute was 0.05 ± 0.01 10^3/μL.

What about the eosinophils absolute [2, 6] of the same molecule?
The eosinophils absolute was 0.14 ± 0.03 10^3/μL.

And the lymphocytes absolute [2, 6]?
Its lymphocytes absolute is 1.18 ± 0.08 10^3/μL.

And the lymphocytes relative [2, 6]?
Its lymphocytes relative is 29.5 ± 1.7%.

And the monocytes absolute [2, 6]?
Its monocytes absolute is 0.52 ± 0.08 10^3/μL.

What about the monocytes relative [2, 6] of the same molecule?
The monocytes relative was 10.7 ± 0.6%.

And the neutrophils absolute [2, 6]?
The neutrophils absolute was 2.41 ± 0.19 10^3/μL.

What about the neutrophils relative [2, 6] of the same molecule?
The neutrophils relative was 55.3 ± 1.4%.

And the platelet count [2, 6]?
The platelet count was 206 ± 14 10^3/μL.

And the MPV [2, 7]?
The MPV was 10.7 ± 0.2* fL.

What about the basophils relative [2, 7] of the same molecule?
Its basophils relative is 1.3 ± 0.2* %.

What about the eosinophils relative [2, 7] of the same molecule?
The eosinophils relative was 2.9 ± 0.5* %.

And the “Difference between treatment conditions for hematology” value ([2]; NR vs placebo)?
Its value is “No meaningful differences”.

And the “All clinical laboratory values versus normal reference range” value ([2]; all clinical laboratory values (Tables 3-5), NR condition)?
Its value is “remained within the normal reference range”.

What about the “Relevance of changes in mean platelet volume and relative distribution of white blood cell types” value ([2]; statistically significant difference between conditions, extremely low effect sizes) of the same molecule?
The value was “physiologically insignificant”.

What about the “Elevation of NAAD above the placebo condition” value (PBMCs; PBMCs) of the same molecule?
Its value is ~5 fold.

And the NR (PBMCs; PBMCs, NR condition, N = 21)?
The NR was “<LOQ”.

And the “2-3 cAMP” value (PBMCs; [8])?
The value was 0.0 ± 0.0 pMol/mg protein.

And the “3-5 cAMP” value (PBMCs; [8])?
Its value is 0.0 ± 0.0 pMol/mg protein.

And the ADP (PBMCs; [8])?
Its ADP is 1133.8 ± 1880.4 pMol/mg protein.

What about the AMP (PBMCs; [8]) of the same molecule?
The AMP was 770.8 ± 1884.3 pMol/mg protein.

And the CDP (PBMCs; [8])?
The CDP was 67.7 ± 113.1 pMol/mg protein.

And the CMP (PBMCs; [8])?
The CMP was 137.2 ± 366.0 pMol/mg protein.

What about the CTP (PBMCs; [8]) of the same molecule?
The CTP was 41.0 ± 68.4 pMol/mg protein.

And the Cytidine (PBMCs; [8])?
The Cytidine was 4.7 ± 6.6 pMol/mg protein.

What about the FAD (PBMCs; [8]) of the same molecule?
Its FAD is 10.2 ± 5.9 pMol/mg protein.

What about the GDP (PBMCs; [8]) of the same molecule?
The GDP was 198.4 ± 329.0 pMol/mg protein.

And the GMP (PBMCs; [8])?
Its GMP is 1010.1 ± 2114.8 pMol/mg protein.

And the GTP (PBMCs; [8])?
The GTP was 327.1 ± 119.1 pMol/mg protein.

What about the Guanosine (PBMCs; [8]) of the same molecule?
The Guanosine was 0.5 ± 1.5 pMol/mg protein.

And the NADP (PBMCs; [8])?
The NADP was 8.9 ± 8.7 pMol/mg protein.

And the NMN (PBMCs; [8])?
Its NMN is 1.2 ± 3.3 pMol/mg protein.

What about the NaM (PBMCs; [8]) of the same molecule?
Its NaM is 383.8 ± 282.7 pMol/mg protein.

And the UDP (PBMCs; [8])?
Its UDP is 270.0 ± 420.7 pMol/mg protein.

What about the UMP (PBMCs; [8]) of the same molecule?
The UMP was 1113.7 ± 2374.2 pMol/mg protein.

And the UTP (PBMCs; [8])?
Its UTP is 340.3 ± 150.1 pMol/mg protein.

And the Uridine (PBMCs; [8])?
The Uridine was 278.3 ± 718.4 pMol/mg protein.

What about the cCMP (PBMCs; [8]) of the same molecule?
Its cCMP is 1.8 ± 8.4 pMol/mg protein.

What about the cGMP (PBMCs; [8]) of the same molecule?
The cGMP was 0.0 ± 0.0 pMol/mg protein.

And the ATP (PBMCs; [9])?
The ATP was 2435.7 ± 1230.3* pMol/mg protein.

What about the Adenosine (PBMCs; [9]) of the same molecule?
Its Adenosine is 14.4 ± 9.7* pMol/mg protein.

What about the NAAD (PBMCs; [9]) of the same molecule?
The NAAD was 1.4 ± 2.2* pMol/mg protein.

And the “NAD+” value (PBMCs; [9])?
The value was 16.2 ± 14.1* pMol/mg protein.

And the ATP mean change (PBMCs; PBMCs, NR vs placebo)?
Its ATP mean change is 699 pMol/mg protein.

What about the “Mean concentration of adenosine” value (PBMCs; PBMCs, NR vs placebo) of the same molecule?
Its value is “increases in the mean concentration”.

And the “Mean concentration of nicotinamide (NaM)” value (PBMCs; PBMCs, NR vs placebo)?
The value was “elevated the mean concentration of nicotinamide (NaM), but this was not statistically significant”.

What about the “Mean level of NADP+” value (PBMCs; PBMCs, NR vs placebo) of the same molecule?
The value was “increased, but did not reach statistical significance”.

And the “NAD+ mean change” value (PBMCs; PBMCs, NR vs placebo)?
The value was 6.2 pMol/mg protein.

What about the NMN mean change (PBMCs; PBMCs, NR vs placebo) of the same molecule?
Its NMN mean change is 0.72 pMol/mg protein.

And the “Levels of adenosine diphosphate (ADP)” value (PBMCs; [10])?
Its value is “tended to raise”.

What about the “Levels of adenosine monophosphate (AMP)” value (PBMCs; [10]) of the same molecule?
The value was “tended to raise”.

And the “Increase in NMN” value (PBMCs; PBMCs, not significant)?
The value was ~1.5 fold.

And the “Elevation of NAD+ levels in PBMCs compared with placebo” value (PBMCs; oral NR supplementation)?
Its value is “about 60%”.
